Results taken from ChEMBL document CHEMBL4311970 (Eur J Med Chem, 2019).
Activity calls are given as the source filed them. The rule behind the calls is not given here.

Assays:
KB = assay: Antiproliferative activity against human KB cells assessed as reduction in cell viability incubated for 72 hrs by SRB assay; format: functional, cell-based
[1] = molecular target: T1, M-phase inducer phosphatase 2 (Homo sapiens, UniProt P30305); assay: Inhibition of recombinant human Cdc25B using OMFP as substrate preincubated for 5 to 8 mins and measured every 5 mins 60 mins by fluorescence based assay
T1 sequence (P30305 whole entry): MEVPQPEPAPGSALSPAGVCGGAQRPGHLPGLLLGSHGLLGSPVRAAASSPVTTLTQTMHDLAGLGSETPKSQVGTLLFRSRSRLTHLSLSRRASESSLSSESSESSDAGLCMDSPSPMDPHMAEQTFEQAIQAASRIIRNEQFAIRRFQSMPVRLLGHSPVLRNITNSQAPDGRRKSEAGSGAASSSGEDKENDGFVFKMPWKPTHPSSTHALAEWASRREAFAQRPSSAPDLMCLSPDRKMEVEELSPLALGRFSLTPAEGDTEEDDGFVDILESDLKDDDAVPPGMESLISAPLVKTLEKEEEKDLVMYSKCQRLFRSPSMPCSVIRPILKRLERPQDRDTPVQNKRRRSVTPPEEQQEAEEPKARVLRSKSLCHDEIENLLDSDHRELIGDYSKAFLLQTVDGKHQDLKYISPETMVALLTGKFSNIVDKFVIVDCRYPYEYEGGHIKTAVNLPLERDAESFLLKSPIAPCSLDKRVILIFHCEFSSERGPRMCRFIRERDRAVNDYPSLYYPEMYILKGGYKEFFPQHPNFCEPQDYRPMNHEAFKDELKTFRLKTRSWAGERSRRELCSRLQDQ

[2] = molecular target: T2, M-phase inducer phosphatase 1 (Homo sapiens) (UniProt P30304); assay: Inhibition of recombinant human Cdc25A at 10 uM using OMFP as substrate preincubated for 5 to 8 mins and measured every 5 mins 60 mins by fluorescence based assay relative to control
T2 sequence (whole entry): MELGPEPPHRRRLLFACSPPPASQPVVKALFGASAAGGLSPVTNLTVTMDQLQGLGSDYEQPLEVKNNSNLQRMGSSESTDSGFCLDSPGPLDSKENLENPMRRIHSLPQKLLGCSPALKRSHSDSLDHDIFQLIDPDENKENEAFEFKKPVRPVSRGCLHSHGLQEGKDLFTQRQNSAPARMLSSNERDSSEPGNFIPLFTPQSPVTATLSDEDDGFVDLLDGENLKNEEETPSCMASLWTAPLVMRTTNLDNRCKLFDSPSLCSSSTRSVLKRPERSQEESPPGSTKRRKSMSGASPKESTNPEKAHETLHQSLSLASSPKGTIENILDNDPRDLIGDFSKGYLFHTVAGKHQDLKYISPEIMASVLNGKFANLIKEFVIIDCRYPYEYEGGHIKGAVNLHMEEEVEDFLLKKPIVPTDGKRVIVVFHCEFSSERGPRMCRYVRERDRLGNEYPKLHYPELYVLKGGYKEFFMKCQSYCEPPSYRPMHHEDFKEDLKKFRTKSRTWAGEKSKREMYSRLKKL

[3] = Cytotoxicity against human NHBE cells assessed as reduction in cell viability incubated for 72 hrs by SRB assay; format: cell-based
[4] = Antiproliferative activity against human KBVIN cells assessed as reduction in cell viability incubated for 72 hrs by SRB assay; format: functional, cell-based
MDA-MB-231 = assay: Antiproliferative activity against human MDA-MB-231 cells assessed as reduction in cell viability incubated for 72 hrs by SRB assay; format: functional, cell-based; settings: MDA-MB-231, 72 h
[5] = molecular target: T3, M-phase inducer phosphatase 3 (Homo sapiens, UniProt P30307); assay: Inhibition of recombinant human Cdc25C using OMFP as substrate preincubated for 5 to 8 mins and measured every 5 mins 60 mins by fluorescence based assay
T3 sequence (P30307 whole entry): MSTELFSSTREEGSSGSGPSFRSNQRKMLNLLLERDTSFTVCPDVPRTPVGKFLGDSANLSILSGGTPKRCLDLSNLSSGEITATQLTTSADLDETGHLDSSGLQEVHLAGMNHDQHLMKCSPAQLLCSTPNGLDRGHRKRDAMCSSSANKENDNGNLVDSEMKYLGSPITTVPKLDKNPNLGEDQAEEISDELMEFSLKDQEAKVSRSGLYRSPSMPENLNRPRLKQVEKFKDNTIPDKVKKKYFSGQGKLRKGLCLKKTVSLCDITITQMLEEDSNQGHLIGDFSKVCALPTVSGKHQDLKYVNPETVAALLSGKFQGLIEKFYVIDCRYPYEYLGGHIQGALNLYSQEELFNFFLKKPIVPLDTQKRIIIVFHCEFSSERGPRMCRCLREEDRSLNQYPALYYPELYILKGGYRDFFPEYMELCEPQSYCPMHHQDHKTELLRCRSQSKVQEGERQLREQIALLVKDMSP

[6] = molecular target: T4, M-phase inducer phosphatase 1 (Homo sapiens, UniProt P30304); assay: Inhibition of recombinant human Cdc25A using OMFP as substrate preincubated for 5 to 8 mins and measured every 5 mins 60 mins by fluorescence based assay
T4 sequence (P30304 whole entry): T2 sequence (whole entry)

[7] = molecular target: T5, M-phase inducer phosphatase 3 (Homo sapiens) (UniProt P30307); assay: Inhibition of recombinant human Cdc25C at 10 uM using OMFP as substrate preincubated for 5 to 8 mins and measured every 5 mins 60 mins by fluorescence based assay
T5 sequence (whole entry): T3 sequence (P30307 whole entry)

A549 = assay: Antiproliferative activity against human A549 cells assessed as reduction in cell viability incubated for 72 hrs by SRB assay; format: functional, cell-based; settings: A549, 72 h
MCF7 = assay: Antiproliferative activity against human MCF7 cells assessed as reduction in cell viability incubated for 72 hrs by SRB assay; format: functional, cell-based; settings: MCF7, 72 h
[8] = molecular target: T6, M-phase inducer phosphatase 2 (Homo sapiens) (UniProt P30305); assay: Inhibition of recombinant human Cdc25B at 10 uM using OMFP as substrate preincubated for 5 to 8 mins and measured every 5 mins 60 mins by fluorescence based assay
T6 sequence (whole entry): T1 sequence (P30305 whole entry)

Homo sapiens [9] = species on record: Homo sapiens; assay: Selectivity index, ratio of IC50 for recombinant human Cdc25B to IC50 for recombinant human Cdc25C
Homo sapiens [10] = species on record: Homo sapiens; assay: Selectivity index, ratio of IC50 for recombinant human Cdc25A to IC50 for recombinant human Cdc25C
[11] = molecular target: T5, M-phase inducer phosphatase 3 (Homo sapiens); assay: Potency index, ratio of IC50 of NSC663284 to IC50 of compound for inhibition of recombinant human Cdc25C using OMFP as substrate preincubated for 5 to 8 mins and measured every 5 mins 60 mins by fluorescence based assay

Structure (SMILES) | IC50 (KB) [µM] | IC50 [1] [nM] | inhibition [2] [%] | IC50 [3] [µM] | IC50 [4] [µM] | IC50 (MDA-MB-231) [µM] | IC50 [5] [nM] | IC50 [6] [nM] | inhibition [7] | IC50 (A549) [µM] | IC50 (MCF7) [µM] | inhibition [8] | Ratio IC50 (Homo sapiens [9]) | Ratio IC50 (Homo sapiens [10]) | Ratio IC50 [11]
N#Cc1cccc(Cn2cc(CNC3=C(Cl)C(=O)c4cccnc4C3=O)nn2)c1 | 5.01 | 1000 | 69.1 | 6.43 | 11.6 | 4.9 | 210 | 540 | Active | 4.92 | 4.84 | Active |  |  | 
N#Cc1ccccc1Cn1cc(CNC2=C(Cl)C(=O)c3cccnc3C2=O)nn1 | 5.13 | 2790 | 57.2 | 2.18 | 9.02 | 4.86 | 420 | 1200 | Active | 4.5 | 4.7 | Active |  |  | 
Cc1ccc(Cn2cc(CNC3=C(Cl)C(=O)c4cccnc4C3=O)nn2)cc1 | 5.05 | 1390 | 74.4 | 6 | 6.81 | 4.63 | 90 | 530 | Active | 3.92 | 4.71 | Active | 15 | 6 | 9
O=C1C(Cl)=C(NCCN2CCOCC2)C(=O)c2ncccc21 | 4.89 |  | 48.4 | 3.31 | 4.87 | 4.97 |  |  | Active | 2.76 | 1 | Active |  |  | 
CC(=O)O[C@H]1C(=O)[C@@]2(C)[C@H]([C@H](OC(=O)c3ccccc3)[C@]3(O)C[C@H](OC(=O)[C@H](O)[C@@H](NC(=O)c4ccccc4)c4ccccc4)C(C)=C1C3(C)C)[C@]1(OC(C)=O)CO[C@@H]1C[C@@H]2O [PACLITAXEL] |  |  |  | 36.5 | 3.15 |  |  |  |  | 0.00752 |  |  |  |  | 
